The assay concerns MCH receptors. Description: MCH receptor activity class (method not given).
Where [1] appears, read: class by percent of control at 10^-7 M or IC50.
The mark [2] stands for this setting: activity class per percent of control at 10^-7 M or IC50.

Each structure is given as a SMILES string.

`CN(C)c1ccnc(N[C@H]2CC[C@@H](NC(=O)C3(c4ccc(Cl)cc4)CCCC3)CC2)n1` [compound 317]: under setting [1], the class is 2 (Class 2: The value of percent of control at 10^−7 M was from 40% to 60% or the value of IC′50 was from 50 nM to 200 nM.).

Turning to `CN(C)c1ccnc(N[C@H]2CC[C@@H](NC(=O)c3c(F)c(F)c(F)c(F)c3F)CC2)n1` [compound 348], the class under setting [1] is reported as 3 (Class 3 The value of percent of control at 10^−7 M was more than 60% or the value of IC50 was more than 200 nM.). As for `CSc1ccc(NC(=O)NC[C@H]2CC[C@@H](Nc3nc4c(c(N(C)C)n3)CCCC4)CC2)cc1` [compound 2457], the class (MCH receptor activity class 1-3 (percent of control at 10^-7 M or IC50)) is recorded as 3 (Class 3 The value of percent of control at 10^−7 M was more than 60% or the value of IC50 was more than 200 nM.). Regarding `CN(C)c1nc(N[C@H]2CC[C@@H](NC(=O)c3cc(-c4ccccc4)nc4ccccc34)CC2)nc2c1CCCC2` [compound 1033], the class under setting [2] was 2 (Class 2: The value of percent of control at 10^−7 M was from 40% to 60% or the value of IC′50 was from 50 nM to 200 nM.).

In the case of `COc1cccc(CC(=O)NC[C@H]2CC[C@@H](Nc3nc4c(c(N(C)C)n3)CCCC4)CC2)c1` [compound 629], the class under setting [1] is given as 3 (Class 3 The value of percent of control at 10^−7 M was more than 60% or the value of IC50 was more than 200 nM.). Turning to `CN(C)c1nc(N[C@H]2CC[C@@H](NC(=O)c3cncc(Br)c3)CC2)nc2c1CCCC2` [compound 524, 5-bromo-N-(cis-4-{[4-(dimethylamino)-5,6,7,8-tetrahydroquinazolin-2-yl]amino}cyclohexyl)nicotinamide], the class (class 1-3 by percent of control at 10^-7 M or IC50) is 1 (Class 1: The value of percent of control at 10^−7 M was less than 40% or the value of IC50 was less than 50 nM.).

In the case of `CN(C)c1cc(N[C@H]2CC[C@@H](CNCc3cc(F)cc(C(F)(F)F)c3)CC2)nc2ccccc12` [compound 1198], the class under setting [1] is listed as 3 (Class 3 The value of percent of control at 10^−7 M was more than 60% or the value of IC50 was more than 200 nM.). Consider `CN(C)c1cc(N[C@H]2CC[C@@H](NC(=O)OCCOCc3ccccc3)CC2)nc2ccccc12` [compound 1539], for which the class (activity class 1-3: percent of control at 10^-7 M or IC50) was 3 (Class 3 The value of percent of control at 10^−7 M was more than 60% or the value of IC50 was more than 200 nM.). Turning to `Cc1cc(C(=O)NC[C@H]2CC[C@@H](Nc3nccc(N(C)C)n3)CC2)ccc1Br` [compound 402], the class under setting [1] was 3 (Class 3 The value of percent of control at 10^−7 M was more than 60% or the value of IC50 was more than 200 nM.). Still for that read-out and setting: under `CN(C)c1ccnc(N[C@H]2CC[C@@H](NC(=O)c3ccc(-c4ccc(Cl)cc4)o3)CC2)n1` [compound 836] stands 1 (Class 1: The value of percent of control at 10^−7 M was less than 40% or the value of IC50 was less than 50 nM.).

For the compound `CN(C)c1cc(N[C@H]2CC[C@@H](NC(=O)Nc3cccc4ccccc34)CC2)nc2ccccc12` [compound 2130, N-(cis-4-{[4-(dimethylamino)quinolin-2-yl]amino}cyclohexyl)-N′-1-naphthylurea], the class under setting [1] is 1 (Class 1: The value of percent of control at 10^−7 M was less than 40% or the value of IC50 was less than 50 nM.).

Regarding `Cc1cccc(C(C)C)c1NC(=S)N[C@H]1CC[C@@H](Nc2nc3c(c(N(C)C)n2)CCCC3)CC1` [compound 1783], the class under setting [1] is given as 3 (Class 3 The value of percent of control at 10^−7 M was more than 60% or the value of IC50 was more than 200 nM.). Still for that read-out and setting: then `Cc1ccc(F)c(NC(=O)N[C@H]2CC[C@@H](Nc3nc4c(c(N(C)C)n3)CCCC4)CC2)c1` [compound 1860], with 3 (Class 3 The value of percent of control at 10^−7 M was more than 60% or the value of IC50 was more than 200 nM.). `CN(C)c1nc(N[C@H]2CC[C@@H](NC(=O)c3ccc([N+](=O)[O-])cc3)CC2)nc2c1CCCC2` [compound 1046]: the class under setting [2] is listed as 3 (Class 3 The value of percent of control at 10^−7 M was more than 60% or the value of IC50 was more than 200 nM.). For `CC(CCN[C@H]1CC[C@@H](Nc2nc3c(c(N(C)C)n2)CCCC3)CC1)c1ccccc1` (stereo partly drawn) [compound 1347], under setting [1], the class was 3 (Class 3 The value of percent of control at 10^−7 M was more than 60% or the value of IC50 was more than 200 nM.).

The values are drawn from US20050197350A1, “Novel quinoline, tetrahydroquinazoline, and pyrimidine derivatives and methods of treatment related to the use thereof” (TAISHO PHARMACEUTICAL CO., LTD., priority 2003, published 2005).
